Patent US20170087174A1, “COMBINATION THERAPY REGIMEN FOR TREATMENT OF HCV” (JANSSEN PHARMACEUTICALS, INC., priority 2015, published 2017)
Entries after “also recorded” stand apart in the source; their conditions may differ. Where two headings read alike, the source gives them in different places.

Columns and labels:
P-gp = P-gp (Homo sapiens, UniProt P08183); conditions: in vitro, cited from earlier work
[1] = Phase-1 drug-drug interaction study in healthy volunteers (Compound (III) 800 mg, SMV 150 mg, Odalasvir 150 mg loading then 50 mg, once daily): plasma PK; assay type: in vivo, human; conditions: for AUC0-24 / Cmax: human
Text: The following daily doses were employed:

MRP2 = MRP2 (Homo sapiens, UniProt Q92887); conditions: in vitro, cited from earlier work
MRP2, sequence (Q92887 whole entry): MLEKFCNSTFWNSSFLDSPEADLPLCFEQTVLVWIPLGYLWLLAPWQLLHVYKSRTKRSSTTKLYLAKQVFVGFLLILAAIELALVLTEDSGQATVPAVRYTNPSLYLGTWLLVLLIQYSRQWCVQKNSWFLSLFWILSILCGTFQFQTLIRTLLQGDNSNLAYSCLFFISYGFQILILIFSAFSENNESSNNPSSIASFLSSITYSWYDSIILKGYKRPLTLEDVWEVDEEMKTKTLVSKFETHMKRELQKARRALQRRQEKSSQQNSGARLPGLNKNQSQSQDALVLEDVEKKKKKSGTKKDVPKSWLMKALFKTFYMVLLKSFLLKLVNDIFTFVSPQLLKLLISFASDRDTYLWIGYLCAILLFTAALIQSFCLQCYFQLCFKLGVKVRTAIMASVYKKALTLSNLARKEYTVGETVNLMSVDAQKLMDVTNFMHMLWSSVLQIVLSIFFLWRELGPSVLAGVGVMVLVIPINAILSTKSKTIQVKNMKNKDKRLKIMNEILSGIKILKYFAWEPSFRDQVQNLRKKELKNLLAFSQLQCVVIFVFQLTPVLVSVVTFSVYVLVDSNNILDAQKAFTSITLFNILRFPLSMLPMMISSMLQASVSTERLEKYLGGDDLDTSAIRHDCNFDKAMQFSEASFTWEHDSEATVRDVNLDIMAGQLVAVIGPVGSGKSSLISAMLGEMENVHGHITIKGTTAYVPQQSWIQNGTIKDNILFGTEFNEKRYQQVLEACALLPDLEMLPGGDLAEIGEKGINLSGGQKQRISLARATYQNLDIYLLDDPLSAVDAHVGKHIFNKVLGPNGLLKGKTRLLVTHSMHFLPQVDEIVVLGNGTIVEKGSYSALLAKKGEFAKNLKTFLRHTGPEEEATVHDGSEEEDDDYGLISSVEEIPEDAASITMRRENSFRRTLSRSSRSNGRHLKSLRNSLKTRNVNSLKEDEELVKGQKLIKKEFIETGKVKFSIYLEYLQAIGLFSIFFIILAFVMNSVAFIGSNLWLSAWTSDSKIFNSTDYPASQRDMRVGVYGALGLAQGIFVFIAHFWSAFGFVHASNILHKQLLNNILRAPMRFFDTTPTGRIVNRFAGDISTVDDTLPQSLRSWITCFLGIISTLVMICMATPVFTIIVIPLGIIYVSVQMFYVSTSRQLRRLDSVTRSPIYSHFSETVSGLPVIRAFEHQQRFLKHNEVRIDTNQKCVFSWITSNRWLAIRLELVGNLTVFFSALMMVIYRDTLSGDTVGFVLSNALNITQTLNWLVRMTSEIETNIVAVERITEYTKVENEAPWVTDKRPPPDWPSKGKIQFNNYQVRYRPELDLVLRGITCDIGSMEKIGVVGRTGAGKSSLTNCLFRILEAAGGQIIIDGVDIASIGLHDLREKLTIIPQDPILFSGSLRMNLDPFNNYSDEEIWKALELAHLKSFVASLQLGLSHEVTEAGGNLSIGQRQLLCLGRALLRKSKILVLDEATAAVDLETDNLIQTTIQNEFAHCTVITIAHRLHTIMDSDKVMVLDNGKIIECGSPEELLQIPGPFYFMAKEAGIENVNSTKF

[2] = PK of single agents vs fixed dose combinations (FDC), single oral dose in healthy volunteers; assay type: in vivo, human; conditions: for Cmax / AUC(0-t) / AUC(0-inf) / Tmax: human, plasma, oral; for Cmax: read-out: Cmax (mean ± SD); for AUC(0-t): read-out: AUClast (mean ± SD); for AUC(0-inf): read-out: AUC∞ (mean ± SD); for Tmax: read-out: tmax (median [range])
Procedure: SMV (100 mg), ODV (50 mg), and Compound (III) (800 mg) were administered as three different formulations or together as single doses in vivo to healthy volunteers. The arms of the study included: • Arm 1 (Reference Arm): Single oral doses of single agents, one SMV 100-mg capsule, one ODV 50-mg tablet as granule layered solid dispersion with copovidone and poloxamers, and two Compound (III) 400-mg tablets, administered together. • Arm 2: Single oral dose of fixed dose combination (FDC02): SMV 100 mg+ODV 50 mg as a spray dried solid dispersion with HPMC-AS L in a ratio ODV/HPMC-AS L 1/1 w/w+Compound (III) 800 mg • Arm 3: Single oral dose of fixed dose combination (FDC04): SMV 100 mg+ODV 50 mg as a spray dried solid dispersion with HPMC-AS L in a ratio ODV/HPMC-AS L 1/3 w/w+Compound (III) 800 mg • Arm 4: Single oral dose of fixed dose combination (FDC01): SMV 100 mg+ODV 50 mg as a spray dried solid dispersion with copovidone and poloxamers+Compound (III) 800 mg
PK parameters, including Cmax, tmax, AUClast, and AUC∞ were measured for Compound (III), ODV, SMV, and metabolites Compound A-I and Compound A-3 for each Arm of the study. Arms that included fixed dose combinations (FDC) (Arm 2, Arm 3, and Arm 4) were then compared to a single oral dose (Arm 1, the reference Arm). Table 9, Table 10, Table 11, Table 12 and Table 13 display relevant PK parameters and FIG. 9, FIG. 10, FIG. 11, FIG. 12, and FIG. 13 depict the plasma concentration over time of SMV, ODV, Compound A-1, and Compound A-3 for each Arm of the study.

[3] = tested on: CYP (cytochrome P450 enzymes); experiment: CYP inhibition in vitro; conditions: for CYP inhibition potential (in words): on any CYP
OATP1B1 = biological target: T1, OATP1B1 (Homo sapiens, UniProt Q9Y6L6); conditions: in vitro, cited from earlier work
T1 sequence (Q9Y6L6 1-691): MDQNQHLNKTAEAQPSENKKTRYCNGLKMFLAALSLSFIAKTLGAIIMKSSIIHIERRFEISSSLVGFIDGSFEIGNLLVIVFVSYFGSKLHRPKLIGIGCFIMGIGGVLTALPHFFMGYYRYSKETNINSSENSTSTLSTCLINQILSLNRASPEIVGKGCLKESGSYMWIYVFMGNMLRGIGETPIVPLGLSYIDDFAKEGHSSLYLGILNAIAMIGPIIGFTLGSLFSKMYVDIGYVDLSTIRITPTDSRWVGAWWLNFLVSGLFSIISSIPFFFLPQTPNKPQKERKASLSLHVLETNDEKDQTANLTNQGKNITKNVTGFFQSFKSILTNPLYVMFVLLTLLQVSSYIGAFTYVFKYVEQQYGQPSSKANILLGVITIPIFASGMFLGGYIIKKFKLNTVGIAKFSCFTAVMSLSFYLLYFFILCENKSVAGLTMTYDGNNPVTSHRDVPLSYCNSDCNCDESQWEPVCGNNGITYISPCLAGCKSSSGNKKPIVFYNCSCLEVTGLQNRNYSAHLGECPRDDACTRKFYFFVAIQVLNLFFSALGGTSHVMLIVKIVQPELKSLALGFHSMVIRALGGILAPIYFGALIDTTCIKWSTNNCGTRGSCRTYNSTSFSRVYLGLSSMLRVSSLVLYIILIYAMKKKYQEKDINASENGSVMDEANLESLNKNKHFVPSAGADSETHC

[4] = Arm 1 (reference): single agents together
[5] = Arm 2 (FDC02) vs reference (Arm 1)
[6] = Arm 3 (FDC04) vs reference (Arm 1)
[7] = Arm 4 (FDC01) vs reference (Arm 1)
[8] = Arm 1 (reference): single agents together, SMV 100-mg capsule, ODV 50-mg tablet, two Compound (III) 400-mg tablets
[9] = Arm 2: FDC02, SMV 100 mg + ODV 50 mg (ODV/HPMC-AS L 1/1 w/w) + Compound (III) 800 mg
[10] = Arm 3: FDC04, SMV 100 mg + ODV 50 mg (ODV/HPMC-AS L 1/3 w/w) + Compound (III) 800 mg
[11] = Arm 4: FDC01, SMV 100 mg + ODV 50 mg (copovidone and poloxamers) + Compound (III) 800 mg

P-gp, sequence (P08183 whole entry): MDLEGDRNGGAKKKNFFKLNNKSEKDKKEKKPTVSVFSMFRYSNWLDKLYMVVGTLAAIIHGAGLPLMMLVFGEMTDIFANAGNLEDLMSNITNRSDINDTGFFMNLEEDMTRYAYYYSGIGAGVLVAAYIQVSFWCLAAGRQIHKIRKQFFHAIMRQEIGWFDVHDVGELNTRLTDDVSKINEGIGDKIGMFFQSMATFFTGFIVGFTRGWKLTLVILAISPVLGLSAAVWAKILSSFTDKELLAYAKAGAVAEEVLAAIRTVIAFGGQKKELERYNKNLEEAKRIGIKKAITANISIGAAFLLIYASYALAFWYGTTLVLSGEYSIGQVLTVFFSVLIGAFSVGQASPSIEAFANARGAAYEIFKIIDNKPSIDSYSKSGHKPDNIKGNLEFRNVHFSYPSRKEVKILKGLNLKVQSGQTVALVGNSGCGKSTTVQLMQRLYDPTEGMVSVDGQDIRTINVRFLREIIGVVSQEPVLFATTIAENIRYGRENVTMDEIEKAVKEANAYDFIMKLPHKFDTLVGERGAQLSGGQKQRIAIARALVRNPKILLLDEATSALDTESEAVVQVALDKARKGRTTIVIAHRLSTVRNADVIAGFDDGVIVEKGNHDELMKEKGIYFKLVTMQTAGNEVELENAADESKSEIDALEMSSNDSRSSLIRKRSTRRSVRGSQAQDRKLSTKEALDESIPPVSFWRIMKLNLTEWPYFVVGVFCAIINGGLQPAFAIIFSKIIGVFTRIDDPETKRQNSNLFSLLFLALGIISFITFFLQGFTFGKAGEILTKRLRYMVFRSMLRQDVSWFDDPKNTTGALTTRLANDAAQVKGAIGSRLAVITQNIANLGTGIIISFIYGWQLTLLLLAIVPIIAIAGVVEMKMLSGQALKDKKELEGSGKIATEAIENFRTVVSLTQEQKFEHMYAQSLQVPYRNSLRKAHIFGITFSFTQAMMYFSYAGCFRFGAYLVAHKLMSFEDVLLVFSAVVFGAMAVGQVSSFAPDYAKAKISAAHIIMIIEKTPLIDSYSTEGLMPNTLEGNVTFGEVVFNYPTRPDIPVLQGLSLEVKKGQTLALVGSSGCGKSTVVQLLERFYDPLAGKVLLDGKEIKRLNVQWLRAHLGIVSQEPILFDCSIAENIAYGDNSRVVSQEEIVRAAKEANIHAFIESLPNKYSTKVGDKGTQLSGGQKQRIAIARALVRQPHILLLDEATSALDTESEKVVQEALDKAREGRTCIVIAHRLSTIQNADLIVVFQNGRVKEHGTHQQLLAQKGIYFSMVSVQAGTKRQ

COC(=O)N[C@H](C(=O)N1[C@H](c2nc3cc(-c4cc5ccc4CCc4ccc(c(-c6ccc7[nH]c([C@@H]8C[C@@H]9CCCC[C@@H]9N8C(=O)[C@@H](NC(=O)OC)C(C)C)nc7c6)c4)CC5)ccc3[nH]2)C[C@@H]2CCCC[C@@H]21)C(C)C [ODV, Odalasvir]
P-gp inhibition (in words) (P-gp): moderate inhibition | IC50 (P-gp; read-out: Pgp inhibition IC50): 9.5 µM | increase of exposure, effect of the three Compounds ([1]; Compound (III) + SMV + ODV co-administered vs given alone): 1.5 fold | AUC0-24 ([1]; both sexes, plasma, oral, Group 1, Day 20 (ODV + SMV), read-out: AUC0-24): 10800 ng·h/mL | Cmax ([1]; both sexes, plasma, oral, Group 1, Day 20 (ODV + SMV), read-out: Cmax): 649 ng/mL | AUC0-24 ([1]; both sexes, plasma, oral, Group 1, Day 23 (SMV + Compound (III) + ODV), read-out: AUC0-24): 12800 ng·h/mL | Cmax ([1]; both sexes, plasma, oral, Group 1, Day 23 (SMV + Compound (III) + ODV), read-out: Cmax): 744 ng/mL | AUC0-24 ([1]; both sexes, plasma, oral, Group 2, Day 10 (ODV alone), read-out: AUC0-24): 8720 ng·h/mL | Cmax ([1]; both sexes, plasma, oral, Group 2, Day 10 (ODV alone), read-out: Cmax): 582 ng/mL | AUC0-24 ([1]; both sexes, plasma, oral, Group 2, Day 13 (ODV + Compound (III)), read-out: AUC0-24): 10200 ng·h/mL | Cmax ([1]; both sexes, plasma, oral, Group 2, Day 13 (ODV + Compound (III)), read-out: Cmax): 669 ng/mL | AUC0-24 ([1]; both sexes, plasma, oral, Group 2, Day 20 (ODV + SMV), read-out: AUC0-24): 14000 ng·h/mL | Cmax ([1]; both sexes, plasma, oral, Group 2, Day 20 (ODV + SMV), read-out: Cmax): 770 ng/mL | AUC0-24 ([1]; both sexes, plasma, oral, Group 2, Day 23 (ODV + Compound (III) + SMV), read-out: AUC0-24): 14800 ng·h/mL | Cmax ([1]; both sexes, plasma, oral, Group 2, Day 23 (ODV + Compound (III) + SMV), read-out: Cmax): 780 ng/mL | effect of Compound (III) on exposure / bioavailability ([1]; co-administered with Compound (III)): no apparent effect; also recorded: does not alter | increase of exposure caused by SMV ([1]; co-administered with SMV vs without): 1.6 fold | MRP2 inhibition (in words) (MRP2): no inhibition | t1/2term (mean ± SD) [2, 4]: 168.6 ± 21.7 h | Least Square Means Ratio, AUClast [2, 5]: 89.66% | Least Square Means Ratio, Cmax [2, 5]: 81.00% | t1/2term (mean ± SD) ([2]; Arm 2: FDC02): 169.0 ± 24.5 h | Least Square Means Ratio, AUClast [2, 6]: 182.32% | Least Square Means Ratio, Cmax [2, 6]: 165.30% | t1/2term (mean ± SD) ([2]; Arm 3: FDC04): 176.0 ± 29.5 h | Least Square Means Ratio, AUClast [2, 7]: 180.14% | Least Square Means Ratio, Cmax [2, 7]: 163.29% | t1/2term (mean ± SD) ([2]; Arm 4: FDC01): 167.8 ± 22.4 h | Cmax [2, 8]: 186 ± 60.4 ng/mL | AUC(0-t) [2, 4]: 6320 ± 2320 ng·h/mL | AUC(0-inf) [2, 4]: 7080 ± 2140 ng·h/mL | Tmax [2, 4]: 6 h | Cmax [2, 9]: 151 ± 54 ng/mL | AUC(0-t) ([2]; Arm 2: FDC02): 5590 ± 1890 ng·h/mL | AUC(0-inf) ([2]; Arm 2: FDC02): 7040 ± 2130 ng·h/mL | Tmax ([2]; Arm 2: FDC02): 6 h | Cmax [2, 10]: 301 ± 80.5 ng/mL | AUC(0-t) ([2]; Arm 3: FDC04): 11500 ± 4390 ng·h/mL | AUC(0-inf) ([2]; Arm 3: FDC04): 14800 ± 5120 ng·h/mL | Tmax ([2]; Arm 3: FDC04): 6 h | Cmax [2, 11]: 298 ± 81.7 ng/mL | AUC(0-t) ([2]; Arm 4: FDC01): 11100 ± 3350 ng·h/mL | AUC(0-inf) ([2]; Arm 4: FDC01): 15700 ± 3560 ng·h/mL | Tmax ([2]; Arm 4: FDC01): 6 h | CYP inhibition potential (in words) [3]: does not inhibit | inhibition of any CYP ([3]; up to 10 μM): no inhibition | OATP1B1 inhibition (in words) (OATP1B1): no inhibition

COc1ccc2c(O[C@@H]3C[C@H]4C(=O)N[C@]5(C(=O)NS(=O)(=O)C6CC6)C[C@H]5/C=C\CCCCN(C)C(=O)[C@@H]4C3)cc(-c3nc(C(C)C)cs3)nc2c1C [SMV, Simeprevir, reference compound]
P-gp inhibition (in words) (P-gp): strong/moderate | AUC0-24 ([1]; both, in vivo): 41258 ng·h/mL | Cmax ([1]; both, in vivo): 2957 ng/mL | MRP2 inhibition (in words) (MRP2): strong/moderate | IC50 (MRP2; read-out: MRP2 inhibition IC50): 6 to 19 µM | t1/2term (mean ± SD) [2, 4]: 8.3 ± 1.8 h | Least Square Means Ratio, AUClast [2, 5]: 127.79% | Least Square Means Ratio, AUC∞ [2, 5]: 126.19% | Least Square Means Ratio, Cmax [2, 5]: 116.50% | t1/2term (mean ± SD) ([2]; Arm 2: FDC02): 8.7 ± 2.3 h | Least Square Means Ratio, AUClast [2, 6]: 133.85% | Least Square Means Ratio, AUC∞ [2, 6]: 132.28% | Least Square Means Ratio, Cmax [2, 6]: 115.24% | t1/2term (mean ± SD) ([2]; Arm 3: FDC04): 9.1 ± 1.6 h | Least Square Means Ratio, AUClast [2, 7]: 117.50% | Least Square Means Ratio, AUC∞ [2, 7]: 116.00% | Least Square Means Ratio, Cmax [2, 7]: 108.22% | t1/2term (mean ± SD) ([2]; Arm 4: FDC01): 8.5 ± 1.5 h | Cmax [2, 8]: 777 ± 225 ng/mL | AUC(0-t) [2, 4]: 9420 ± 3380 ng·h/mL | AUC(0-inf) [2, 4]: 9920 ± 3430 ng·h/mL | Tmax [2, 4]: 6 h | Cmax [2, 9]: 942 ± 431 ng/mL | AUC(0-t) ([2]; Arm 2: FDC02): 12700 ± 6260 ng·h/mL | AUC(0-inf) ([2]; Arm 2: FDC02): 13200 ± 6430 ng·h/mL | Tmax ([2]; Arm 2: FDC02): 6 h | Cmax [2, 10]: 906 ± 321 ng/mL | AUC(0-t) ([2]; Arm 3: FDC04): 12900 ± 5830 ng·h/mL | AUC(0-inf) ([2]; Arm 3: FDC04): 13400 ± 6020 ng·h/mL | Tmax ([2]; Arm 3: FDC04): 6 h | Cmax [2, 11]: 856 ± 318 ng/mL | AUC(0-t) ([2]; Arm 4: FDC01): 11600 ± 6300 ng·h/mL | AUC(0-inf) ([2]; Arm 4: FDC01): 12100 ± 6410 ng·h/mL | Tmax ([2]; Arm 4: FDC01): 6 h | CYP inhibition potential (in words) [3]: limited | OATP1B1 inhibition (in words) (OATP1B1): strong in vitro inhibition | IC50 (OATP1B1; read-out: OATP1B1 inhibition IC50): 0.3 µM
